According to the supplement of paper PMC10883282:

Tests used:
Assay in all cases: relative viability vs DMSO control (72 h) (fraction); higher = more viable cells
[1] = tested on: KHOS-240S
Summary of the method: (§1)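 A 5 µM positive control and 0.1% DMSO vehicle ran alongside sarcoma cell lines seeded in 384-well plates to reach 80–90% confluence. Serially diluted compound, 2.5 µl from source plates of 10 mM to 0.0002 mM, was added after 24 h, and the plates were held 72 h at 37 °C, 5% CO2. Relative viability was worked out from ATPLite readings as percent growth averaged over up to triplicate wells. The values were rescaled so that 1 is full and 0 is none.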

[2] = tested on: RD-ES
Summary of the method: as §1

[3] = tested on: RD
Summary of the method: as §1

[4] = tested on: SK-ES-1
Summary of the method: as §1

[5] = tested on: SW982
Summary of the method: as §1

COc1cc2ncnc(Nc3ccc(F)c(Cl)c3)c2cc1NC(=O)/C=C/CN1CCCCC1 [Dacomitinib]
relative viability
Conditions | [1] | [2] | [3] | [4] | [5]
0.00017 µM | 1.08 | 1.02 | 1.103 | 1.04 | 1.05
0.00051 µM | 1.09 | 1.01 | 1.09 | 1.1 | 1.07
0.00152 µM | 1.09 | 1.01 | 1.12 | 1.04 | 1.08
0.00457 µM | 1.06 | 1.02 | 1.141 | 1.07 | 1.09
0.01372 µM | 1.06 | 1.02 | 1.13 | 1.07 | 1.08
0.04115 µM | 1.06 | 1.01 | 1.12 | 1.04 | 1.08
0.1235 µM | 1.08 | 0.992 | 1.12 | 1.02 | 1.04
0.3704 µM | 1.01 | 0.9359 | 1.08 | 1.01 | 0.986
1.111 µM | 0.936 | 0.832 | 0.976 | 0.662 | 0.606
3.333 µM | 0.579 | 0.474 | 0.347 | 0.184 | 0.21
10 µM | 0.0145 | 0.0093 | 0.00617 | 0.00867 | 0.0159

N#CCC1(n2cc(-c3ncnc4[nH]ccc34)cn2)CN(C2CCN(C(=O)c3ccnc(C(F)(F)F)c3F)CC2)C1 [Itacitinib]
relative viability
Conditions | [1] | [2] | [3] | [4] | [5]
0.00017 µM | 1.05 | 0.92 | 1.01 | 1.04 | 0.979
0.00051 µM | 1.04 | 0.949 | 1.02 | 0.996 | 0.996
0.00152 µM | 1.04 | 0.919 | 1.02 | 0.977 | 1.01
0.00457 µM | 1.06 | 0.956 | 1.07 | 1.05 | 1
0.01372 µM | 1.02 | 0.927 | 1.08 | 0.979 | 1.02
0.04115 µM | 1.01 | 0.913 | 1.05 | 0.976 | 0.974
0.1235 µM | 0.984 | 0.909 | 1.05 | 1.01 | 0.976
0.3704 µM | 0.999 | 0.909 | 1.03 | 0.964 | 0.956
1.111 µM | 0.97 | 0.924 | 1.04 | 0.972 | 0.983
3.333 µM | 0.95 | 0.887 | 1.04 | 0.884 | 0.93
10 µM | 0.923 | 0.853 | 1.06 | 0.855 | 0.928

C=CC(=O)Nc1cccc(Nc2nc(Nc3ccc(N4CCN(C(C)=O)CC4)cc3OC)ncc2C(F)(F)F)c1 [Rociletinib]
relative viability
Conditions | [1] | [2] | [3] | [4] | [5]
0.00017 µM | 1.08 | 0.965 | 1.04 | 0.973 | 1.01
0.00051 µM | 1.06 | 0.962 | 1.078 | 1.02 | 1.05
0.00152 µM | 1.07 | 0.961 | 1.08 | 1.03 | 1.08
0.00457 µM | 1.07 | 0.979 | 1.112 | 1.06 | 1.07
0.01372 µM | 1.07 | 0.967 | 1.11 | 1 | 1.05
0.04115 µM | 1.03 | 1 | 1.08 | 1.03 | 1.04
0.1235 µM | 1.08 | 0.937 | 1.11 | 1.02 | 1.04
0.3704 µM | 1.02 | 0.889 | 1.05 | 0.943 | 1.05
1.111 µM | 0.928 | 0.673 | 0.911 | 0.658 | 0.911
3.333 µM | 0.774 | 0.453 | 0.594 | 0.232 | 0.6095
10 µM | 0.491 | 0.125 | 0.293 | 0.0621 | 0.265

CC[C@@H]1C(=O)N(C)c2cnc(Nc3ccc(C(=O)N[C@H]4CC[C@H](N5CCN(CC6CC6)CC5)CC4)cc3OC)nc2N1C(C)C [Volasertib]
relative viability
Conditions | [1] | [2] | [3] | [4] | [5]
0.00017 µM | 1.07 | 1.02 | 1.132 | 1.09 | 1.047
0.00051 µM | 1.054 | 1 | 1.12 | 1.1 | 1.07
0.00152 µM | 1.06 | 1.01 | 1.129 | 1.08 | 1.08
0.00457 µM | 1.06 | 1.028 | 1.14 | 1.1 | 1.06
0.01372 µM | 0.979 | 0.987 | 1.07 | 1.05 | 1.01
0.04115 µM | 0.319 | 0.447 | 0.363 | 0.495 | 0.353
0.1235 µM | 0.221 | 0.0248 | 0.212 | 0.0483 | 0.259
0.3704 µM | 0.189 | 0.0217 | 0.18 | 0.0522 | 0.209
1.111 µM | 0.171 | 0.0279 | 0.169 | 0.0871 | 0.182
3.333 µM | 0.122 | 0.0346 | 0.119 | 0.114 | 0.15
10 µM | 0.0197 | 0.0126 | 0.0206 | 0.0116 | 0.0111
